Assay results published in patent US9057106B2, “Method of determination of diagnosis and prognosis in patients with B-cell chronic lymphocytic leukemia and oligonucleotides for use in this method” (MASARYKOVA UNIVERZITA, priority 2009, dated 2015).
“Also recorded” adds a separate entry of the source.

Test system: CLL cells
Assay: Transwell migration assay of CLL cells in chemokine gradient
Format: cell-based, human
Description: 2006 Nov. 1; 108(9):3143-51; Richardson S J, Matthews C, Catherwood M A, Alexander H D, Carey B S, Farrugia J, Gardiner A, Mould S, Oscier D, Copplestone J A, Prentice A G: ZAP-70 expression is associated with enhanced ability to respond to migratory and survival signals in B-cell chronic lymphocytic leukemia (CLL). Blood. 2006 May 1; 107(9):3584-92). […] CK1ε is the key component of the Wnt/PCP pathway and its quantity in the patients suffering from CLL is increased. As we show in FIG. 5B, the inhibition of CK1ε blocks the effects of Wnt5a on cell migration in the chemokine gradient. […] The extent of the migration of CLL cells in chemokine gradient after Wnt5a stimulation may be determined by the following procedure and used for the determination of the migration capacity of CLL cells that correlates closely with the infiltration of lymphatic organs and the agressiveness of the disease (Till K J, Lin K, Zuzel M., Cawley J C. The chemokine receptor CCR7 and a4 integrin are important for migration of chronic lymphocytic leukemia cells into lymph nodes. Blood. 2002 99: 2977-2984).
CLL cells were isolated by the identical procedure as in Example 6. After isolation the cells were transferred to tissue culture and subjected to Transwell assay. 96 well plates were used for the experiments (Corning, HTS Transwell®-96 Permeable Support with 5.0 μm Pore Polycarbonate Membrane). These plates consist of a bottom part including the wells and a top part that includes the inserts, the bottom of which is formed by the membrane of a defined size of pores. Each sample was measured in triplicate. The wells in the bottom part of the plate always included 0.235 ml of the medium (RPMI 1640, 0.1% FBS, 1% Penicillin Streptomycin, 1% L-glutamine) and further the required concentration of the chemokine or solvent (0.1% BSA in PBS). […] After the cultivation the inserts were removed from the transwell plate, trypsin was added to each well (100 μl) and after 5 minutes of its activity the number of the cells that migrated through the membrane were counted in each well. […]

CXCL12: chemokine CXCL12
migration of CLL cells (substance itself (alone), 20 hours, recombinant Wnt5a 200 ng/ml): influences positively the migration of CLL cells

NC(=O)c1ccc(-c2nc(-c3ccc4c(c3)OCCO4)c(-c3ccccn3)[nH]2)cc1 [D4476, reference compound]
effect of CK1 inhibition on Wnt5a-induced migration of CLL cells in the chemokine gradient (CK1 inhibitor D4476 100 uM, with Wnt5a and chemokine): blocks migration

B1: Wnt5a: recombinant Wnt5a, secreted ligand of the Wnt/PCP pathway (protein, UniProt P41221 62-380, looked up)
Protein Wnt-5a: IIGAQPLCSQLAGLSQGQKKLCHLYQDHMQYIGEGAKTGIKECQYQFRHRRWNCSTVDNTSVFGRVMQIGSRETAFTYAVSAAGVVNAMSRACREGELSTCGCSRAARPKDLPRDWLWGGCGDNIDYGYRFAKEFVDARERERIHAKGSYESARILMNLHNNEAGRRTVYNLADVACKCHGVSGSCSLKTCWLQLADFRKVGDALKEKYDSAAAMRLNSRGKLVQVNSRFNSPTTQDLVYIDPSPDYCVRNESTGSLGTQGRLCNKTSEGMDGCELMCCGRGYDQFKTVQTERCHCKFHWCCYVKCKKCTEIVDQFVCK
migration of CLL cells in the presence of the chemokine CXCL12 (combination of CXCL12 and recombinant Wnt5a (200 ng/ml), 20 hours): positively affect the migration of CLL cells; also recorded: significantly increased the migration of CLL
